How the values were obtained:
[1] = Performance test: solvency of G1652 resin; assay type: physicochemical; settings: scale 1 = completely insoluble, 10 = completely soluble, >=6 soluble; 0.5 mL, ~20 mg resin, 22° C., 1 hour
Experimental: (§1) Several compounds were combined in different initial blends (Table 1). Standardized performance tests on solvency of a variety of resins, including (but not limited to) Kraton resins G1652, KR1164, KR1171, and G1726, Sukorez resin SU100S, and paraffin wax.
(§2) The performance tests on resins were performed as follows: The addition of 0.5 mL of each formulation to an individual screw-cap vial containing a stirbar and resin (G1652: ˜20 mg, SU100S: ˜40 mg, G1726: ˜25 mg, KR1164: ˜20 mg, KR1171, ˜20 mg, paraffin wax: ˜55 mg). The vials were tightly capped and solutions were stirred on a stirplate (400 rpm) at 22° C. for 1 hour. The stirbar was removed and solvency was observed, photos of the results were taken (Formulations 1-27, G1652 and SU100S). The odor of the blends was also tested empirically. Evaporation rates were calculated based on weight averages (% by volume) of individual components.

[2] = Performance test: solvency of SU100S resin; assay type: physicochemical; settings: scale 1 = completely insoluble, 10 = completely soluble, >=6 soluble; 0.5 mL, ~40 mg resin, 22° C., 1 hour
Experimental: as §1, §2

[3] = cited from earlier work

Compound | G1652 solvency [1] | SU100S solvency [2] | stability ([3]; in the presence of strong aqueous bases or aqueous acids) | solubility in water ([3]; room temperature) [%]
FC(F)(F)c1ccc(Cl)cc1 [Formulation 26, para-chlorobenzotrifluoride] | 10 | 10 |  | 
COC(C)=O [Methyl acetate] |  |  | not stable | 25
CCCCCC [Formulation 27, hexanes] | 10 | 10 |  | 
